Entries after “also recorded” stand apart in the source; their conditions may differ. No end group written: not given here.

For series [1] the following is noted: cited from earlier work.
Series [2] has as its system Male Swiss-Webster mice. Nature of the series: Mouse injection bioassay (intracerebroventricular; also subcutaneous, intraperitoneal). In kind it is in vivo. The following applies: for symptoms in injected mice (in words): intracerebroventricular injection, dose not given or as in the words; for symptoms in mice: 7–8 week old male Swiss-Webster mice; for Mouse (IC) high dose / Mouse (IC) low dose: preliminary biological activity. As for the experimental part: (§1) Bioassays: Male Swiss-Webster mice were purchased from Charles River, Inc., and housed at the Animal Housing Facility, UC Davis. Blowfly (Sarcophaga spp.), crickets (Acheta domesticus) and Anole lizards (Anoles caroliensis) were purchased from Carolina Biologicals (Burlington, N.C.). Cotton bollworms (Heliothis virescens) were obtained from USDA/ARS (Stoneville, […].) and reared on artificial diet. Collected fractions were tested on mice by intracerebroventricular injections and by injecting last instar blowfly larvae. Third instar cotton bollworms and adult common house crickets were also used in screening for insecticidal components. Briefly, fractions were concentrated to dryness using a Heto Speed Vac (ATR, Inc. Emeryville, Calif.). Dried samples were resuspended in 10 μl 20 mM ammonium acetate buffer with 1 μg/μl BSA and incubated overnight at 4° C. to insure proper refolding before injection to the test animals. Mice were anesthetized using ethyl ether and intracerebroventricular injections of peptide solutions were executed immediately. […] All symptoms were observed and recorded up to 24 hours post injection. All experiments were carried out in accordance with the guidelines laid down by the National Institutes of Health in the USA regarding the care and use of experimental animals.
Next, the biological activities of Ikitoxin and Birtoxin were compared. Mouse biological activity was evaluated by intracerebroventricular injections of 7–8 week old male Swiss-Webster mice using […] purified toxin.
The biological activities of dortoxin, bestoxin, and ikitoxin were evaluated in blowfly larvae, tobacco budworm larvae, and mice. Blowfly larvae, tobacco budworm larvae were injected with 1 μL of fraction or toxin solution in water. The effects were observed and recorded up to 24 hrs post injection. The toxins to were also injected to mice (swiss-webster male 4–6 week old mice) through an intracerebroventricular route (brain). The mice were anesthetized using ethyl ether then injected with various doses of 5 μL of test solution. The effects were again observed and recorded up to 24 hrs post injection. […] The experiments were terminated after 48 hrs of observation. […] Bestoxin is only two amino acid different from its sister peptide dortoxin. The MALDI determined molecular masses for dortoxin (6643 Da) and bestoxin (6603 Da) also agree with the two amino acid difference of Lys20 in dortoxin to Glu20 in bestoxin and Glu45 in dortoxin to Ser45 in bestoxin.

Series [3] deals with rat brain synaptosomes. In kind it is binding. The following applies: for EC50: read-out: EC50 (effective concentration).
The test system of series [4] is sodium channel binding site 3. Nature of the series: Ion channel binding properties of birtoxin.
Series [5] has as its system Blowfly (Sarcophaga spp.) larvae. In words: Blowfly larvae injection bioassay. In kind it is in vivo. The following applies: for activity against blowfly (Sarcophaga) larvae (in words): injection into larvae. The protocol:
Uctoxin HPLC Purification: Uctoxin was purified through three steps of RP-HPLC guided by insect and mouse bioassays. Initially the venom of P.transvaalicus was resuspended in solvent A (2% acetonitrile 98% water 0.1% TFA) and ran multiple times through a C4 magic bullet column hooked up to a Magic 2002 microbore HPLC System with a linear gradient of 2 to 65% solvent B (98% acetonitrile 2% water 0.1% TFA) in 15 minutes at a flow rate of 300 μL/min. as described above for ikitoxon. UV trace at 214 and 280 nm was monitored. Fraction P3 from the first column was collected, several runs were pooled and freeze dried. This fraction was run on a Michrom C18 microbore column on the same system with a linear gradient of 2 to 65% solvent B in 30 minutes at a flow rate of 50 μL/min. Peak 2 from the C18 column was further purified by running it through a microbore phenyl column on the same system with the same gradient conditions. Purity was confirmed using MALDI-TOF MS. Biological activity of peptide was monitored by intracerebroventricular injection of mice and also injections of blowfly and tobacco budworm larvae. For bioassays uctoxin was purified and resuspended in 20 mM ammonium acetate buffer with 1 ug/ul BSA. (The 50% effective doses (ED50) were determined according to Reed and Muench (Reed L. J., Muench, S. 1938 Am.J.Hyg 27, 493–497.))
as §1
The biological activities of dortoxin, bestoxin, and ikitoxin were evaluated in blowfly larvae, tobacco budworm larvae, and mice. Blowfly larvae, tobacco budworm larvae were injected with 1 μL of fraction or toxin solution in water. The effects were observed and recorded up to 24 hrs post injection. The toxins to were also injected to mice (swiss-webster male 4–6 week old mice) through an intracerebroventricular route (brain). The mice were anesthetized using ethyl ether then injected with various doses of 5 μL of test solution. The effects were again observed and recorded up to 24 hrs post injection. […] The MALDI determined molecular masses for dortoxin (6643 Da) and bestoxin (6603 Da) also agree with the two amino acid difference of Lys20 in dortoxin to Glu20 in bestoxin and Glu45 in dortoxin to Ser45 in bestoxin.

Series [6] has as its system Male Swiss-Webster mice. In words: Mouse injection bioassay (intracerebroventricular; also subcutaneous, intraperitoneal). In kind it is in vivo. The following applies: preliminary biological activity.
Series [7] relates to Insect Lepidoptera. Nature of the series: Parakinin in vivo assay on Lepidoptera. The following applies: preliminary biological activity. An excerpt: The preliminary biological activity of parakinins I investigated by in vivo assays conducted on insects and mice. Parakinins are active and potent against both invertebrates and vertebrates. These in vivo effects implicate potential pharmaceutical use and development. Due to the small nature of parakinins analogs of these peptides can be synthesized and tested very rapidly.

Setting [8] is: intracerebroventricular, 0.2–1 mg purified toxin.

In the case of RPPGFSPFR [bradykinin], the “destroyed on a single passage through the pulmonary circulation” value in series [1] (anesthetized rat) is recorded as 98%–99%. For the same substance, the “half life in the systemic circulation” value in series [1] (rat, in vivo) is recorded as “less than 30 seconds”.

Turning to “bestoxin (ADVPGNYPLDKDGNTYTCLELGENKDCQKVCKLHGVQYGYCYAFSCWCKEYLDDKDSV; listed as Parabuthus transvaalicus)”, in series [2] (intracerebroventricular), the “sensitivity to stimuli of injected mice” value is listed as “hypersensitive to stimuli”; the “state of the mice at the end of 48 hrs” value is “still live, dessicated, and exhausted but still continued to roll”. Moreover, the “symptoms in injected mice (in words)” value in series [2] is “contract, twist and roll around itself indefinitely”.

In the case of “birtoxin (ADVPGNYPLDKDGNTYKCFLLGGNEECLNVCKLHGVQYGYCYASKCWCEYLEDDKDVS; not fully specified; ends and bridges not checked)”, in series [3], the “enhancement of the binding of [3H] BTX” value is given as “about 4.32 fold”. In addition, the EC50 in series [3] is about 0.005 µM. Besides, the “effect of injection in mice” value in series [2] (1 μg of pure birtoxin) is recorded as “induced severe neurotoxic symptoms in mice up to 24 hours but was not lethal”; in series [2] (2 μg of pure peptide), “lethal”. Besides, the “symptoms in injected mice (in words)” value in series [2] is “induced serious symptoms, including tremors, which lasted up to 24 hours post injection at submicrogram amounts”. In series [2] (setting [8]), the symptoms in mice result is “convulsions, tremors, increased heart rate and finally death”. Besides, in series [2] (mouse, in vivo), the “lethality to mice (summary statement)” value is given as “lethal to mice at low microgram quantities”. Moreover, the “sodium channel binding site and mode of action” value in series [4] was “binds to sodium channel binding site 3 and blocks the sodium channel by prolonging the inactivation”.

“dortoxin (ADVPGNYPLDKDGNTYTCLKLGENKDCQKVCKLHGVQYGYCYAFECWCKEYLDDKDSV; listed as Parabuthus transvaalicus)”: the “symptoms in injected mice (in words)” value in series [2] was “convulsions, tremors and death”. Further, in series [2] (intracerebroventricular, Swiss-Webster male 4–6 week old mice), the LD99 is given as < 0.5 μg/20 gr of mouse.

Consider “ikitoxin (ADVPGNYPLDKDGNTYKCFLLGENEECLNVCKLHGVQYGYCYASKCWCEYLEDDKDVS; listed as Parabuthus transvaalicus)”, for which the “symptoms in injected mice (in words)” value in series [2] is listed as “induced periodic unprovoked jumps in injected mice”. In series [2] (setting [8]), the “time course of the symptom” value was “Within three hours of injection the symptom gradually faded” and the symptoms in mice entry is reported as “periodic unprovoked jumps”. Besides, the “initial frequency of unprovoked jumps” value in series [2] (intracerebroventricular, 0.2–1 mg purified toxin, for 20 minutes) is “about 3 jumps per minute”. The “lethality during the observation period” value in series [2] (intracerebroventricular, range of injected doses 0.2–1 mg) is on record as “did not show lethality”. Also, the “activity against blowfly (Sarcophaga) larvae (in words)” value in series [5] is reported as “not active against Sarcophaga”.

With “parakinin-1 (PFIVPPFR; listed as Parabuthus transvaalicus)”, in series [2], the “Mouse (IC) high dose” value is reported as “Paralysis” and the “Mouse (IC) low dose” value was “Hyperventilation,; also recorded: Hyperactivity”. Besides, in series [6], the “Mouse (SC)” value was “Hyperventilation,; also recorded: Hyperactivity”. The “Insect Lepidoptera” value in series [7] is “Contractive paralysis”. Besides, the Insect blowfly result in series [5] (preliminary biological activity) is listed as “Contractive paralysis”.

“parakinin-2 (PFVVPPFR; listed as Parabuthus transvaalicus)”: in series [2], the “Mouse (IC) high dose” value is reported as “Paralysis” and the “Mouse (IC) low dose” value is given as “Hyperventilation,; also recorded: Hyperactivity”. Also, in series [6], the “Mouse (SC)” value was “Hyperactivity”.

In the case of uctoxin, the “enhancement of the binding of [3H] BTX” value in series [3] is given as 2 fold. The EC50 in series [3] was about 0.06 µM. The “symptoms in injected mice (in words)” value in series [2] was “consistent contraction and tremors”. This substance also showed a time to lethality in series [2] (intracerebroventricular, 0.5 μg of uctoxin) of at most 30 min. The “activity against blowfly (Sarcophaga) larvae (in words)” value in series [5] is listed as “bioactivity only in the case of the first major peak”; in series [5] (listed as Uctoxin), “immediate flaccid paralysis”. Also, in series [5] (last instar Sarcophaga larvae, flaccid paralysis), the ED50 entry is given as “about 70 ng/100 mg larvae”.

Source of the values: patent US7176280B2, “Isolated polypeptides and compositions from the venom of P. transvaalicus and methods of use” (The Regents of the University of California, priority 2001, dated 2007).
